Legend:
miR-21 [1] = assay: In vitro gene regulation in A549 cells (qRT-PCR of miR-21 and its target genes); format: cell-based, human; conditions: 100 nM AM-21, mRNA relative to GAPDH
Description: Cells were grown in 24-well plates at a density of 7.0×10^5 cells/well 24 h prior to transfection. QT/AM-21 of varying lipid composition or QT/negative control (NC) were administered at 50 nM in the presence of 20% serum containing media to determine the optimal QT composition. […] Cells were incubated at 37° C. with transfection media for 4 h and then washed three times with PBS. Fresh complete cell culture media was added and the cells were incubated at 37° C. for an additional 44 h. RNA was isolated from cells by RNeasy 96 kit (Qiagen, Valencia, Calif., USA). qRT-PCR was conducted with Taqman® MicroRNA Assay (Life Technologies) or EXPRESS One-Step Superscript® qRT-PCR kit (Life Technologies) on an Applied Biosystems StepOnePlus™ RT-PCR system (Life Technologies). The relative amount of […] was calculated and compared according to the 2^−ΔΔCt method.
Lung cancer A549 cells (human lung adenocarcinoma epithelial cell line) were cultured in vitro as standard cell culture. Cells were cultured in RPMI 1640 media supplemented with 10% FBS and 1% antibiotics/antimycotics in a 5% CO2 atmosphere at 37° C. […]
RNA was extracted by TRIzol reagent per manufacturer's protocol. cDNA was generated by Maxima First Strand cDNA synthesis kit per manufacture's protocol. […] RECK and PTEN mRNA levels were measured relative to GAPDH.

A549 cells [2] = format: cell-based, human; parameters: decrease of cell viability: dose or concentration left out as unconfirmed
Description: Cells were grown in 96-well plates at a density of 2.0 ×10^4 cells/well. Cells were treated with controls or QT/AM-21 at 50, 100, or 200 nM, with and without PTX (4.1 nM) dissolved in a small volume of 1:1 Cremophor EL:ethanol solution. Relative cell viability was quantified by CellTiter 96® AQueous One Solution Cell Proliferation Assay (Promega, Madison, Wis., USA) according to the manufacturer's protocol 72 h following the start of treatment. Briefly, 20 μL MTS assay solution was added to each well and the plates were incubated for 1 h. The absorbance at 490 nm was recorded to determine cytotoxicity relative to the untreated control.
A549 cells were cultured as in Example 2, and treated with either QT/AM-21 (5′-U*C*A*ACAUCAGUCUGAUAAG*C*U*A-3′, SEQ ID NO:3) at three different concentrations (50 nM, 100 nM or 200 nM), paclitaxel (PTX) or a combination of PTX and QT/AM-21 (PTX/50 nM QT/AM-21; PTX/QT/100 nM-21; TX/200 nM QT/AM-21). (Dosage of PXT was 4nM).
The cells were incubated with the drugs for 72 h; after which the cells were harvested and tested for cytotoxicity and viability using MTS assay kit by Promega. Absorbance scanning was done at 490 nm to determine relative cell viabilities.

A549 cells [3] = assay: Migration assay (scratch wound healing); format: cell-based, human; conditions: A549, QT lipids or AM-21 (200 nM) alone, 48 h
Description: A wound healing model was conducted to examine the migratory ability of A549 cells following treatment. A549 cells were plated at a density of 6.0×10^5 cells/well in a 33 mm petri dish 24 h prior to transfection. A scratch wound across the dish was made using a 10 μL pipet tip immediately before treatment. Culture media was removed and replaced with transfection media containing QT/AM-21 or appropriate controls diluted in complete media. Cells were allowed to proliferate at 37° C. for 48 h. Distances between edges of the wound were measured on a Nikon E800 microscope (Nikon, Tokyo, Japan) and SPOT Advanced Imaging Software (v5.0, Diagnostic Instruments Inc., Sterling Heights, Mich., USA).
A549 cells were cultured following standard culture procedure and incubated with QT/AM-21 (5′-U*C*A*ACAUCAGUCUGAUAAG*C*U*A-3′, SEQ ID NO:3) at three different concentrations (50 nM, 100 nM and 200 nM), or free, unformulated AM-21 (200 nM) for 48 hours. The untreated cells and cells treated with empty “QTsome™” lipid nanoparticle formulation were used as control. The migration of tumor cells was determined.

A549 cells [4] = assay: Matrigel invasion assay; format: cell-based, human; conditions: A549, QT lipids or AM-21 alone, 48 h
Description: Matrigel (BD Biosciences, San Jose, Calif., USA) was combined with serum-free RPMI 1640 culture media in a 1:1 ratio. 70 μL of gel was added to each well insert of a 24-well plate. The gel was allowed to set for 1 h at 37° C. A549 cells were seeded at […] in a volume of 100 μL/well on top of the gel in the insert. Transfection media containing various formulations or controls at 2×concentration in a 100 μL volume were added to the top of the well inserts. 500 μL 10% fetal bovine supplemented media was added as a chemoattractant below the transwell insert. The plate was incubated at 37° C. for 48 h. Following the incubation period, cells remaining in the top of the well inserts were removed with a cotton swab. Well inserts were rinsed with PBS and placed in 500 uL 0.25% trypsin solution for 1 h at 37° C. Detached cells were counted on a hemocytometer.
A matrigel invasion assay was also performed after 48 hour treatment, as follows: Chilled Matrigel was combined with chilled serum-free RPMI 1640 culture media in a 1:1 ratio. 70 uL of gel was added to each well insert of a 24-well plate. The gel was allowed to set for 1 hour at 37° C. A549 cells were seeded at 75,000 cells/well in a volume of 100 uL/well on top of the gel. […] Detached cells were counted on a hemocytometer.

A549 xenograft = assay: Combination therapy (QT/AM-21 and PTX) in A549 xenograft; format: in vivo, mice; conditions: 1 mg/kg QT/AM-21 tail vein and/or 3 mg/kg PTX i.p., start ~80 mm^3, 4 weeks
Description: Mice were treated by tail vein injection with saline control or 1 mg/kg QT/AM-21. Mice receiving PTX treatment as monotherapy or combination therapy received PTX dissolved in 1:1 Cremephor EL:ethanol solution at a dose of 3 mg/kg via intraperitoneal injection. Mice were dosed on days 1, 3, 5, 8, 15, 22, 29 and were monitored over a 4 week period. 48 h following the last dose, mice were euthanized and tumors were collected for gene regulation study.

miR-21 [5] = assay: In vivo gene regulation in A549 xenograft tumors (qRT-PCR); parameters: species or system mice; conditions: 1 mg/kg QT/AM-21 and/or 3 mg/kg PTX
Description: Female athymic nude mice (n=5 per group) were implanted with 1.0×10^6 A549 cells/mouse and treatment began when tumors reached a size of ≥100 mm^3. Mice were treated by tail vein injection with saline control or 1 mg/kg QT/AM-21. Mice receiving PTX treatment as monotherapy or combination therapy received PTX dissolved in 1:1 Cremephor EL:ethanol solution at a dose of 3 mg/kg via intraperitoneal injection. Mice were dosed on days 1, 3, 5, 8, 15, 22, 29 and were monitored over a 4 week period. 48 h following the last dose, mice were euthanized and tumors were collected for gene regulation study.
Tumors were harvested and placed in TRIzol reagent (Life Technologies) following treatment and homogenized. mRNA was isolated per the manufacturer's protocol. qRT-PCR was then completed according to the same procedure as outlined in the in vitro section.

| Compound | expression of RECK compared to untreated control A549 cells (miR-21 [1]) | change of cell viability on addition to PTX (A549 cells [2]; A549, free AM-21 or QT lipids added to PTX, MTS) | cell migration in the wound region (A549 cells [3]) | cell invasion (A549 cells [4]) | cells still alive compared to untreated control (A549 cells [2]; A549, PTX alone (4 nM), 72 h, MTS) [%] | decrease of cell viability (A549 cells [2]; human, 72 h) [%] | tumor volume at end of study (A549 xenograft) [mm^3] | upregulation of DDAH1 and PTEN in tumors (miR-21 [5]) | DDAH1 upregulation in tumors (miR-21 [5]; 48 h after last dose) [fold] | PTEN upregulation in tumors (miR-21 [5]; 48 h after last dose) [fold] |
| --- | --- | --- | --- | --- | --- | --- | --- | --- | --- | --- |
| u*c*a*acaucagucugauaag*c*u*a (UCAACAUCAGUCUGAUAAGCUA; linkages s3 o15 s3 (s phosphorothioate, o phosphodiester), sugars by position and methylation of C not given here; further chemistry not fully specified) [AM-21] | upregulated | did not result in significant decreases in cell viability | did not confer significant decreases in cell migration | did not significantly retard cell invasion |  |  |  |  |  |  |
| CC(=O)O[C@H]1C(=O)[C@@]2(C)[C@H]([C@H](OC(=O)c3ccccc3)[C@]3(O)C[C@H](OC(=O)[C@H](O)[C@@H](NC(=O)c4ccccc4)c4ccccc4)C(C)=C1C3(C)C)[C@]1(OC(C)=O)CO[C@@H]1C[C@@H]2O [PTX, Paclitaxel] |  |  |  |  | ~65 | 40 | 246.4 | moderate upregulation | 1.7 | 1.5 |

— patent US10555910B2, “Oligonucleotide lipid nanoparticle compositions, methods of making and methods of using the same” (Ohio State Innovation Foundation, priority 2014, dated 2020)
